{
  "source": "patent US20050054006A1",
  "about": "“Combinatorial fluorescent library based on the styryl scaffold” (New York University, priority 2003, published 2005)",
  "key": {"[1]": {"system": "dsDNA (double stranded DNA)", "experiment": "Fluorescence change of the dye upon addition of DNA (fluorometric titration)", "type": "binding", "method": "(§1) With these compounds(FIG. 2), we observed the fluorescence intensity change upon addition of DNA. […] With a series of concentrations of dsDNA (double stranded DNA) added to compound 1, a linear increase in the fluorescence intensities was observed (FIG. 3). At the highest concentration of DNA tested (50 μg/mL), the increase in fluorescence emission reached up to 13.3 times higher than that of the free compound (FIG. 4). A blue shift of 17 nm in the emission wavelength upon DNA addition was observed, without a significant excitation wavelength shift. The structure of compound 1 includes a 2,4,5-trimethoxy group from the benzaldehyde moiety and a unique adamantyl pyridinium functionality.\nDifferent trimethoxy isomers, 2 (3,4,5-trimethoxy) and 3 (2,3,4-trimethoxy) were synthesized to compare the positional effects of the methoxy groups in compound 1 (FIG. 2). While the responses of compound 2 and 3 to DNA treatment were simliar to that of compound 1, the fluorescence emission increase was much smaller in compound 2 (4.3 fold) and compound 3 (1.5 fold)."}, "[2]": {"system": "UACC-62 human melanoma cells", "experiment": "Organelle localization in live cells by fluorescence microscopy", "details": "compounds 1, 2, 3 at the same concentration, live UACC-62 cells"}, "[3]": {"experiment": "Spectrophotometric properties of the free styryl dyes", "type": "physicochemical", "method": "as §1"}},
  "data": [
    {"smiles": "COc1cc(OC)c(OC)cc1C=Cc1cc[n+](C23CC4CC(CC(C4)C2)C3)cc1.[Br-]", "note": "[Compound 1]", "values": [
      {"measurement": "blue shift in the emission wavelength upon DNA addition", "setting": "[1]", "result": 17, "unit": "nm"},
      {"measurement": "fluorescence intensity change upon addition of DNA", "setting": "[1]", "result": "strong fluorescence increase"},
      {"measurement": "increase in fluorescence emission versus free compound", "setting": "[1]; highest DNA concentration tested, 50 μg/mL", "result": 13.3, "unit": "times"},
      {"measurement": "φF DNA", "setting": "[1]; quantum yield, with DNA", "result": 0.0032},
      {"measurement": "φF DNA/φF free", "setting": "[1]; ratio of quantum yields with DNA and free", "result": 13.3},
      {"measurement": "λem DNA (nm)", "setting": "[1]; with DNA", "result": 566, "unit": "nm"},
      {"measurement": "nuclear localization / staining in live cells", "setting": "[2]", "result": "more selective staining of the nucleus of live cells"},
      {"measurement": "emission wavelength", "setting": "[3]", "result": 583, "unit": "nm"},
      {"measurement": "excitation wavelength", "setting": "[3]", "result": 413, "unit": "nm"},
      {"measurement": "λem free (nm)", "setting": "[3]; free dye", "result": 583, "unit": "nm"},
      {"measurement": "λmax (nm)", "setting": "[3]; free dye", "result": 413, "unit": "nm"},
      {"measurement": "linear fluorescence response range", "setting": "[3]; in PBS, without self-quenching or wavelength shifts", "result": "0.05 to 100", "unit": "µM"},
      {"measurement": "φF free", "setting": "[3]; quantum yield, free dye", "result": 0.00024}
    ]}
  ]
}
